Results on 24 compounds are retold here after US10905744B2, “Pharmaceutical formulations for the oral delivery of peptide drugs” (Cyprumed GmbH, priority 2015, dated 2021).

A short description of data set [1]: Compatibility of absorption enhancers with trace elements: dissolution in aqueous medium, visual examination (Example 1). Type of data set: physicochemical. On the procedure: Solid dry powder mixtures of desmopressin acetate, zinc sulfate or iron(III) chloride, and different absorption enhancers were prepared and dissolved in 2 ml aqua purificata.
Data set [2] has as its target chymotrypsin (Bos taurus, UniProt P00766). In words: Chymotrypsin inhibition, BTPNA substrate, absorbance at 405 nm (Examples 9, 13-19, 23, 24, 27, 30, 31).
Procedure: CuSO4.5H2O dilutions in 10 mM TRIS buffer pH 7 to 10 mM, 5 mM, 2.5 mM 1.25 mM Benzoyl-Tyrosine p-nitroanilide (BTPNA): 0.5 mg/mL BTPNA in Acetone
Study: • (1) 100 μl buffer (10 mM TRIS, pH=7)+50 μl Chymotrypsin Stock+50 μl BTPNA • (2) 80 μl buffer (10 mM TRIS, pH=7)+20 μl CuSO4 stock (10 mM)+50 μl Chymotrypsin Stock+50 μl BTPNA • (3) 80 μl buffer (10 mM TRIS, pH=7)+20 μl CuSO4 dilut. (5 mM)+50 μl Chymotrypsin Stock+50 μl BTPNA • (4) 80 μl buffer (10 mM TRIS, pH=7)+20 μl CuSO4 stock (2.5 mM)+50 μl Chymotrypsin Stock+50 μl BTPNA • (5) 80 μl buffer (10 mM TRIS, pH=7)+20 μl CuSO4 dilut. (1.25 mM)+50 μl Chymotrypsin Stock+50 μl BTPNA
Final copper concentrations: 1 mM, 0.5 mM, 0.25 mM, 0.125 mM.
10 mM CuSO4 and Copper gluconate stock solution were diluted 1:1 with 10 mM TRIS buffer pH 7
Study: • (1) 100 μl buffer (10 mM TRIS, pH=7)+50 μl Chymotrypsin Stock+50 μl BTPNA • (2) 80 μl buffer (10 mM TRIS, pH=7)+20 μl CuSO4 dil. (5 mM)+50 μl Chymotrypsin Stock+50 μl BTPNA • (3) 80 μl buffer (10 mM TRIS, pH=7)+20 μl Copper gluconate dilut. (5 mM)+50 μl Chymotrypsin Stock+50 μl BTPNA • (4) 100 μl Cu-bisglycinate stock (0.5 mM)+50 μl Chymotrypsin Stock+50 μl BTPNA
10 mM CuSO4 stock solution was diluted 1:1 with 10 mM TRIS Puffer pH 7
Study: • (1) 30 μl buffer (10 mM TRIS, pH=7)+20 μl CuSO4 dil. (5 mM)+100 μl Chymotrypsin Stock: 30 min. incubation, then addition of 50 μl BTPNA • (2) 30 μl buffer (10 mM TRIS, pH=7)+100 μl Chymotrypsin Stock: 30 min. incubation, then addition of 20 μl CuSO4 dil. (5 mM)+50 μl BTPNA
Final copper concentration: 0.5 mM
Iron(II)-bisglycinate solution containing 1.86 mM of iron in 10 mM TRIS buffer pH 7 was prepared
Cu(II)-gluconate solution containing 2.0 mM of copper in 10 mM TRIS buffer pH 7 was prepared
Study: • (1) 100 μl buffer (10 mM TRIS, pH=7)+50 μl Chymotrypsin Stock+50 μl BTPNA • (2) 100 μl iron(II)-bisglycinate+50 μl Chymotrypsin Stock+50 μl BTPNA • (3) 100 μl copper(II)-gluconate+50 μl Chymotrypsin Stock+50 μl BTPNA
Values were corrected (subtraction of blank). Inhibition was calculated by setting the absorption value of (1) at each time-point as 100%.
Iron(II)-bisglycinate solution containing 0.46 mM of iron in 10 mM TRIS buffer pH 7 was prepared
Cu(II)- bisglycinate solution containing 0.46 mM of copper in 10 mM TRIS buffer pH 7 was prepared
Study: • (1) 100 μl buffer (10 mM TRIS, pH=7)+50 μl Chymotrypsin Stock+50 μl BTPNA • (2) 100 μl iron(II)-bisglycinate+50 μl Chymotrypsin Stock+50 μl BTPNA • (3) 100 μl copper(II)-bisglycinate+50 μl Chymotrypsin Stock+50 μl BTPNA
Values were corrected (subtraction of blank). Inhibition (%) was calculated by setting the absorption value of (1) at each time-point as 100% degradation.
Values were corrected (subtraction of blank). pH was confirmed to be pH 7 after the experiment.
0.025 mg/ml Chymotrypsin, 0.05 mg/mL Benzoyl-Tyrosine p-nitroanilide (BTPNA). Lauryl glutamate: 0.25 mg/ml; copper (as copper gluconate): 0.035 mg/ml.
0.025 mg/ml Chymotrypsin, 0.05 mg/mL Benzoyl-Tyrosine p-nitroanilide (BTPNA). Lauryl glutamate: 0.25 mg/ml; iron (as iron gluconate): 0.03 mg/ml.
100 μl 50 mM TRIS pH 7+50 μL Chymotrypsin Stock+50 μL BTPNA Stock
50 μl Beta-cyclodextrin+50 μl 50 mM TRIS pH 7+50 μL Chymotrypsin Stock+50 μL BTPNA Stock
50 μl copper gluconate+50 μl 50 mM TRIS pH 7+50 μL Chymotrypsin Stock+50 μL BTPNA Stock
50 μl copper gluconate+50 μl Beta-cyclodextrin+50 μL Chymotrypsin Stock+50 μL BTPNA Stock
50 μl copper gluconate+50 μl trisodium phosphate+50 μL Chymotrypsin Stock+50 μL BTPNA Stock
50 μl iron gluconate+50 μl trisodium phosphate+50 μL Chymotrypsin Stock+50 μL BTPNA Stock
Experiments were carried out at pH 7 in 50 mM TRIS buffer.
Data set [3] in a line: GLP-1 peptide formulations with SNAC and trace elements: dissolution in aqua purificata, visual (Example 4). The data set is classed as physicochemical. The following applies: liraglutide 1.8 mg/ml, SNAC 20 mg, trace element 2 mg, disodium phosphate dihydrate, 2 ml aqua purificata. How it is done:
Compositions comprising a GLP-1 peptide, a complexing agent (disodium phosphate dihydrate), the absorption enhancer N-(8-[2-hydroxybenzoyl]amino)caprylic acid (SNAC) and various trace elements or metal salts were prepared and dissolved in 2 ml of aqua purificata and examined visually.

For data set [4], the target named is T1, trypsin (Bos taurus, UniProt P00760).
T1 construct: gene PRSS1
T1 sequence (P00760 24-246): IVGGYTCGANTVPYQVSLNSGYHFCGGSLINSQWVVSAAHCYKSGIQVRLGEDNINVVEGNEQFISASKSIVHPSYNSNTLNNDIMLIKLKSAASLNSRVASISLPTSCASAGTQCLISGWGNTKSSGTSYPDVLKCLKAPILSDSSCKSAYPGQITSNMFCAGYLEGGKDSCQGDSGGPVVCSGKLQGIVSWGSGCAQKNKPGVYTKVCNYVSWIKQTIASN
In words: Trypsin inhibition, BAPNA substrate, absorbance at 405 nm (Examples 10-12, 20-22, 25, 26, 28, 29, 33). The data set is classed as biochemical. On the procedure: 100 mg/ml copper gluconate in 50 mM TRIS pH 7; pH was adjusted to pH 7; stock solution was diluted to the following concentrations: 50 mg/ml, 25 mg/ml, 12.5 mg/ml, 5 mg/ml, 6.25 mg/ml, 3.125 mg/ml, 2.5 mg/ml, 1.25 mg/ml, 0.625 mg/ml, 0.313 mg/ml, 0.156 mg/ml and 0.078 mg/ml
0.5 mg/mL Benzoyl-Arginine p-nitroanilide (BAPNA)
100 μl 50 mM TRIS pH 7+50 μL Trypsin Stock+50 μL BAPNA Stock
100 μl Copper solution (according to the above described dilutions)+50 μL Trypsin Stock+50 μL BAPNA Stock
Absorption was measured after 15 minutes at 405 nm.
Values were corrected (subtraction of blank).
100 mg/ml Zinc bisglycinate in 50 mM TRIS pH 7; pH was adjusted to pH 7; stock solution was diluted to the following concentrations: 50 mg/ml and 25 mg/ml
100 μl Zinc solution (according to the above described dilutions)+50 μL Trypsin Stock+50 μL BAPNA Stock
10 mg/ml iron gluconate in 50 mM TRIS pH 7; pH was adjusted to pH 7; stock solution was diluted to the following concentrations: 5 mg/ml, 2.5 mg/ml, 1.25 mg/ml and 0.625 mg/ml
100 μl Iron solution (according to the above described dilutions)+50 μL Trypsin Stock+50 μL BAPNA Stock
Absorption was measured directly at 405 nm.
Benzoyl-Arginine p-nitroanilide (BAPNA): 0.5 mg/ml in 50 mM TRIS pH 7 (centrifuged and supernatant used as stock solution)
Trypsin: […] in 50 mM TRIS pH 7
1 mg/mL iron gluconate in 10 mM TRIS pH 7 (iron content=12%), 0.12 mg/ml iron
12 mg/mL copper lysinate in 10 mM TRIS pH 7 (copper content=3%), 0.12 mg/ml copper
100 μl of the respective salt solution+50 μL Trypsin Stock+50 μL BAPNA Stock
Experiments were carried out at pH 7, 50 mM TRIS.
0.025 mg/ml Trypsin, 0.125 mg/mL Benzoyl-Arginine p-nitroanilide (BAPNA.) Lauryl glutamate:
0.25 mg/ml; copper content (as copper(II)gluconate): 0.035 mg/ml.
Adsorption measurement at 405 nm
0.025 mg/ml Trypsin, 0.125 mg/mL Benzoyl-Arginine p-nitroanilide (BAPNA). lauryl-glutamate:
Absorption measurement at 405 nm
0.025 mg/ml Trypsin, 0.125 mg/mL Benzoyl-Arginine p-nitroanilide (BAPNA). Capryl-glucoside:
Copper sulfate stock solution: 1 mg/ml of copper sulfate was dissolved in 50 mM TRIS pH 7. Copper tartrate stock solution: 1 mg/ml of copper tartrate was dispersed in 50 mM TRIS pH 7 and moderately stirred for 5 minutes. The suspension was then centrifuged at 3′000 rpm for 10 minutes, to separate the insoluble salt. The supernatant was used as stock solution for the experiments.
Zinc orotate stock solution: 1 mg/ml of zinc orotate was dispersed in 50 mM TRIS pH 7 and moderately stirred for 5 minutes. The suspension was then centrifuged at 3′000 rpm for 10 minutes, to separate the insoluble salt. The supernatant was used as stock solution for the experiments.
100 μL of the respective salt solution stock+50 μL Trypsin Stock+50 μL BAPNA Stock
Control: 100 μL of 50 mM TRIS pH 7+50 μL Trypsin Stock+50 μL BAPNA Stock
Final concentrations of protease and substrate were 0.025 mg/ml Trypsin, 0.125 mg/mL
50 μl manganese sulfate+50 μl copper gluconate+50 μL Trypsin Stock+50 μL BAPNA Stock
Absorption measurement at 405 nm; final pH in all solutions was monitored to be pH 7.
3 mg/ml SiO2—suspended in 50 mM TRIS pH 7 and centrifuged; supernatant was used for experiments.
50 μl SiO2+50 μl 50 mM TRIS pH 7+50 μL Trypsin Stock+50 μL BAPNA Stock
50 μl copper gluconate+50 μl SiO2+50 μL Trypsin Stock+50 μL BAPNA Stock
50 μl iron gluconate+50 μl SiO2+50 μL Trypsin Stock+50 μL BAPNA Stock
120 μl 50 mM TRIS pH 7+50 μL Trypsin Stock+50 μL BAPNA Stock
80 μl copper gluconate+40 μl 50 mM TRIS pH 7+50 μL Trypsin Stock+50 μL BAPNA Stock
40 μl copper gluconate+80 μl 50 mM TRIS pH 7+50 μL Trypsin Stock+50 μL BAPNA Stock
80 μl iron gluconate+40 μl 50 mM TRIS pH 7+50 μL Trypsin Stock+50 μL BAPNA Stock
40 μl iron gluconate+80 μl 50 mM TRIS pH 7+50 μL Trypsin Stock+50 μL BAPNA Stock
80 μl iron gluconate+40 μl copper gluconate+50 μL Trypsin Stock+50 μL BAPNA Stock

Setting [5] is: desmopressin acetate + FeCl3 5 mg/ml + absorption enhancer 10 mg/ml in 2 ml aqua purificata.
Where [6] appears, read: desmopressin acetate + ZnSO4 5 mg/ml + absorption enhancer 10 mg/ml in 2 ml aqua purificata.
Setting [7] is: Example 16, 0 minutes, metal ion 0.015 mg/ml ([…]), 10 mM TRIS pH 7.
[8] abbreviates: Example 26, 1 mg/ml stocks (supernatant for copper tartrate and zinc orotate), pH 7, 50 mM TRIS, FIG. 17.

In the case of `C[C@H](CCC(=O)O)[C@H]1CC[C@H]2[C@@H]3[C@H](O)C[C@@H]4C[C@H](O)CC[C@]4(C)[C@H]3C[C@H](O)[C@]12C` [Cholic acid], the “Dissolution in aqueous medium (2 ml)” value in data set [1] (setting [5]) and in data set [1] (setting [6]) was “Precipitation” each time.

In the case of `O=C(O)CC(O)(CC(=O)O)C(=O)O` [Citric acid], the “Dissolution in aqueous medium (2 ml)” value in data set [1] (setting [6]) is reported as “Clear solution”.

For the compound `NCC(=O)[O-].NCC(=O)[O-].[Cu+2]` [Copper-bisglycinate], in data set [2] (setting [7]), the Inhibition % turned out to be 0%.

Turning to `O=C(O)CN(CCN(CC(=O)O)CC(=O)O)CC(=O)O` [EDTA], the chymotrypsin inhibition result in data set [2] (Example 18, stocks: copper gluconate 10 mM, EDTA 5 mM, sodium caprylate 4 mg/ml, pH 7, FIG. 9) is given as “can inhibit chymotrypsin”; in data set [2] (Example 31, stocks […] copper(II)gluconate, 1.25 mM EDTA, pH 7, 10 mM TRIS, FIG. 22), “can be inhibited”. In data set [2] (Example 19, EDTA added to a solution of copper gluconate, Tween 20 and sodium caprylate, FIG. 10), the “effect on chymotrypsin inhibition” value is “positive effect on chymotrypsin inhibition”.

As for `[Cl][Fe]([Cl])[Cl]` [Fe(III)chlorid, iron(III) chloride], in data set [3], the “Dissolution in aqua purificata” value was “precipitation”.

`NCC(=O)[O-].NCC(=O)[O-].[Fe+2]` [Iron bisglycinate]: the Inhibition % in data set [2] (Example 15, 0 minutes, metal ion Fe 0.06 mg/ml (0.92 mM), Cu 0.065 mg/ml (1.0 mM), 10 mM TRIS pH 7) stood at 0%; in data set [2] (Example 15, 15 minutes, metal ion Fe 0.92 mM, Cu 1.0 mM), 69%; in data set [2] (Example 15, 30 minutes, metal ion Fe 0.92 mM, Cu 1.0 mM), 62%; in data set [2] (Example 15, 45 minutes, metal ion Fe 0.92 mM, Cu 1.0 mM), 56%; in data set [2] (Example 15, 60 minutes, metal ion Fe 0.92 mM, Cu 1.0 mM), 52%; in data set [2] (setting [7]), 0%. Besides, in data set [3], the “Dissolution in aqua purificata” value was “Clear brownish solution”.

For the compound `CCCCCCCCCCCC(=O)OC(CC(=O)O)C[N+](C)(C)C.[Cl-]` (stereo not drawn) [Lauroyl carnitine HCl], the “Dissolution in aqueous medium (2 ml)” value in data set [1] (setting [5]) and in data set [1] (setting [6]) was “Clear solution” in each case.

For the compound `CCCCCCCCCC(=O)[O-].[Na+]` [Sodium caprate], the “Dissolution in aqueous medium (2 ml)” value in data set [1] (setting [5]) and in data set [1] (setting [6]) was “Precipitation” in each case.

As for `CCCCCCCC(=O)[O-].[Na+]` [Sodium caprylate], the “Dissolution in aqueous medium (2 ml)” value in data set [1] (setting [5]) and in data set [1] (setting [6]) was “Precipitation” in each case.

`C[C@H](CCC(=O)[O-])[C@H]1CC[C@H]2[C@@H]3[C@H](O)C[C@@H]4C[C@H](O)CC[C@]4(C)[C@H]3C[C@H](O)[C@]12C.[Na+]` [Sodium cholate]: the “Dissolution in aqueous medium (2 ml)” value in data set [1] (setting [5]) and in data set [1] (setting [6]) was “Precipitation” throughout.

For `CCCCCCCCCCCCOS(=O)(=O)[O-].[Na+]` [Sodium dodecyl sulfate], the “Dissolution in aqueous medium (2 ml)” value in data set [1] (setting [5]) and in data set [1] (setting [6]) was “Clear solution” each time.

As for `CC(=O)[O-].CC(=O)[O-].[Zn+2]` [Zinc acetate], the “Dissolution in aqua purificata” value in data set [3] was “precipitation”.

On to `[Cl-].[Cl-].[Zn+2]` [ZnCl2, zinc chloride], for which the “Dissolution in aqua purificata” value in data set [3] is “precipitation”.

Turning to `O=S(=O)([O-])[O-].[Zn+2]` [ZnSO4, zinc sulfate], in data set [3], the “Dissolution in aqua purificata” value is given as “precipitation”.

Turning to `O=C([O-])C(O)C(O)C(=O)[O-].[Cu+2]` (stereo not drawn) [copper tartrate], the trypsin inhibition entry in data set [4] (setting [8]) was “show trypsin inhibitory properties in vitro”.

For `NCCCC[C@H](N)C(=O)O.NCCCC[C@H](N)C(=O)O.[Cu]` [copper(II)lysinate], the trypsin inhibition entry in data set [4] (Example 20, solutions 1 mg/mL iron gluconate, 1 mg/mL copper gluconate, 12 mg/mL copper lysinate, FIG. 11) is reported as “can be inhibited”.

`CCCCCCCCCCCCO[C@@H]1O[C@H](CO)[C@@H](O[C@H]2O[C@H](CO)[C@@H](O)[C@H](O)[C@H]2O)[C@H](O)[C@H]1O` [n-Dodecyl-b-D-maltoside]: the “Dissolution in aqueous medium (2 ml)” value in data set [1] (setting [5]) and in data set [1] (setting [6]) was “Clear solution” in each case.

`CCCCCCCCO[C@@H]1O[C@H](CO)[C@@H](O)[C@H](O)[C@H]1O` [n-Octyl-b-D-glucopyranoside]: the “Dissolution in aqueous medium (2 ml)” value in data set [1] (setting [5]) and in data set [1] (setting [6]) was “Clear solution” throughout.

In the case of `NCC(=O)[O-].NCC(=O)[O-].[Zn+2]` [zinc bisglycinate], the inhibition of trypsin entry in data set [4] (pH 7) is recorded as “inhibits the proteolytic enzyme trypsin in a dose dependent manner”.

As for Copper orotate, in data set [3], the “Dissolution in aqua purificata” value was “Clear solution”.

For Zinc carnosine, the “Dissolution in aqua purificata” value in data set [3] is “Clear solution”.

For Zinc orotate, in data set [4] (setting [8]), the trypsin inhibition result is on record as “show trypsin inhibitory properties in vitro”. Besides, the “Dissolution in aqua purificata” value in data set [3] is on record as “Clear solution”.

Zinc picolinate: the “Dissolution in aqua purificata” value in data set [3] is “Clear solution”.

For the compound lauryl-glutamate, the trypsin inhibition result in data set [4] (Example 21, lauryl glutamate […], copper […], pH 7, 50 mM TRIS, FIG. 12) is on record as “can be inhibited”; in data set [4] (Example 22, lauryl-glutamate […], iron 0.03 mg/ml, pH 7, 50 mM TRIS, FIG. 13), “can be inhibited”.
